Experimental findings from article PMC3549271 (ACS medicinal chemistry letters, 2012) are described below.

The target of assay [1] is T1, human A1 adenosine receptor (hA1AR) (Homo sapiens, UniProt P30542).
T1 sequence (P30542 1-326): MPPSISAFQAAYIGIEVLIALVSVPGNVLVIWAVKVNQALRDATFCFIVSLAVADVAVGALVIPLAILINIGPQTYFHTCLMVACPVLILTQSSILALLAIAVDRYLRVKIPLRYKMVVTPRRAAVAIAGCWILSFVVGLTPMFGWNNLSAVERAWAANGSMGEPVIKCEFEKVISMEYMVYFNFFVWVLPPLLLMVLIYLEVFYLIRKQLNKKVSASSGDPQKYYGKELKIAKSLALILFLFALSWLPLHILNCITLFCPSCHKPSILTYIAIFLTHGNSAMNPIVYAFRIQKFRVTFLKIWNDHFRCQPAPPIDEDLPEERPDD
The assay is described as follows: radioligand binding assay at human A1AR. The following applies: read-out: % inhibition at 10μM A1.

The target of assay [2] is human A2A adenosine receptor (hA2AAR) (Homo sapiens, UniProt P29274). The assay is described as follows: radioligand binding assay at human A2AAR. The following applies: free energy of binding divided by the number of heavy atoms.
In a further assay the target is T2, A2BAR (Homo sapiens, UniProt P29275).
T2 sequence (P29275 1-332): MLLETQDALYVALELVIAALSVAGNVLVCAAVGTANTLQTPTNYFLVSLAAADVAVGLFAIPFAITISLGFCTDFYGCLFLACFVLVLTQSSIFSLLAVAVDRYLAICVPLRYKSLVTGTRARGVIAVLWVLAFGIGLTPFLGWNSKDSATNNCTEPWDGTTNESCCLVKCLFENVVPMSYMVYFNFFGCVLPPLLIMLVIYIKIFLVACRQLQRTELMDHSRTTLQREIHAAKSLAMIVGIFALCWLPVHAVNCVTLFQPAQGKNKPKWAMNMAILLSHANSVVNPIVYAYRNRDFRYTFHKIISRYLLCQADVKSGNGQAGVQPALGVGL
In kind it is cell-based.

Molecules are shown by their SMILES.

Chain of human A2A adenosine receptor (hA2AAR) (P29274 whole entry): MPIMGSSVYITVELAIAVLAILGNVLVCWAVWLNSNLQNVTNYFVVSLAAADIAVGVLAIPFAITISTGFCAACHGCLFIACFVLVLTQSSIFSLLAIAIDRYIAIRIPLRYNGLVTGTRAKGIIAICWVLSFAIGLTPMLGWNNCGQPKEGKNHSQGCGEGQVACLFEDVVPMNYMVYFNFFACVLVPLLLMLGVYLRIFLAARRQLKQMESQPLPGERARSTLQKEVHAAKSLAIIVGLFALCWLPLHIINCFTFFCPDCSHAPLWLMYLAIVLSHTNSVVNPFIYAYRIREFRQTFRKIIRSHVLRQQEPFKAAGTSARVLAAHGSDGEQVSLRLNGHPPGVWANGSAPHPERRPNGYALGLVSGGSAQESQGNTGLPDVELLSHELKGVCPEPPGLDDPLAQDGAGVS

For the compound `Cc1cccc(O[C@H](C)C(=O)Nc2nc(-c3ccccc3)n[nH]2)c1` [Compound 1], in assay [1], the inhibition at 10 µM was 19%. Also, the “ligand efficiency (LE)” value in assay [2] was determined as 0.34. The “% inhibition at 10μM A2B (inhibition of cAMP accumulation)” value on A2BAR (10 μM compound, in the presence of 300 nM NECA, three independent experiments) is “no significant activity”.
For `Cc1ccc(O[C@H](C)C(=O)Nc2nc(-c3ccco3)n[nH]2)cc1` [Compound 24], at A2BAR (read-out: % inhibition at 10μM A2B (inhibition of cAMP accumulation)), the inhibition at 10 µM is -15%.
`CCCC(=O)Nc1nc(-c2ccccc2)n[nH]1` [Compound 27]: the “ligand efficiency (LE)” value in assay [2] came out at 0.48.
Same read-out and setting: with `O=C(Nc1nc(-c2ccccc2)n[nH]1)c1ccccc1` [Compound 29] the figure was 0.44; with `COc1ccccc1C(=O)Nc1nc(-c2ccccc2)n[nH]1` [Compound 32], 0.42.
